Reference: PubChem BioAssay AID367 (MTDP, 2006)
Active and inactive are the calls of the source. The rule behind the calls is not given here.

What follows are compounds tested against Gag-Pol polyprotein (Human immunodeficiency virus type 2 subtype A (isolate ROD)) (UniProt P04584) (assay: Ribonuclease H inhibitors of HIV-2 reverse transcriptase, biochemical dose response (AID 367)). Conditions: HIV-2 RNase H, FRET RNA/DNA substrate cleavage.
Chain of Gag-Pol polyprotein (Human immunodeficiency virus type 2 subtype A (isolate ROD)) (P04584 whole entry, looked up): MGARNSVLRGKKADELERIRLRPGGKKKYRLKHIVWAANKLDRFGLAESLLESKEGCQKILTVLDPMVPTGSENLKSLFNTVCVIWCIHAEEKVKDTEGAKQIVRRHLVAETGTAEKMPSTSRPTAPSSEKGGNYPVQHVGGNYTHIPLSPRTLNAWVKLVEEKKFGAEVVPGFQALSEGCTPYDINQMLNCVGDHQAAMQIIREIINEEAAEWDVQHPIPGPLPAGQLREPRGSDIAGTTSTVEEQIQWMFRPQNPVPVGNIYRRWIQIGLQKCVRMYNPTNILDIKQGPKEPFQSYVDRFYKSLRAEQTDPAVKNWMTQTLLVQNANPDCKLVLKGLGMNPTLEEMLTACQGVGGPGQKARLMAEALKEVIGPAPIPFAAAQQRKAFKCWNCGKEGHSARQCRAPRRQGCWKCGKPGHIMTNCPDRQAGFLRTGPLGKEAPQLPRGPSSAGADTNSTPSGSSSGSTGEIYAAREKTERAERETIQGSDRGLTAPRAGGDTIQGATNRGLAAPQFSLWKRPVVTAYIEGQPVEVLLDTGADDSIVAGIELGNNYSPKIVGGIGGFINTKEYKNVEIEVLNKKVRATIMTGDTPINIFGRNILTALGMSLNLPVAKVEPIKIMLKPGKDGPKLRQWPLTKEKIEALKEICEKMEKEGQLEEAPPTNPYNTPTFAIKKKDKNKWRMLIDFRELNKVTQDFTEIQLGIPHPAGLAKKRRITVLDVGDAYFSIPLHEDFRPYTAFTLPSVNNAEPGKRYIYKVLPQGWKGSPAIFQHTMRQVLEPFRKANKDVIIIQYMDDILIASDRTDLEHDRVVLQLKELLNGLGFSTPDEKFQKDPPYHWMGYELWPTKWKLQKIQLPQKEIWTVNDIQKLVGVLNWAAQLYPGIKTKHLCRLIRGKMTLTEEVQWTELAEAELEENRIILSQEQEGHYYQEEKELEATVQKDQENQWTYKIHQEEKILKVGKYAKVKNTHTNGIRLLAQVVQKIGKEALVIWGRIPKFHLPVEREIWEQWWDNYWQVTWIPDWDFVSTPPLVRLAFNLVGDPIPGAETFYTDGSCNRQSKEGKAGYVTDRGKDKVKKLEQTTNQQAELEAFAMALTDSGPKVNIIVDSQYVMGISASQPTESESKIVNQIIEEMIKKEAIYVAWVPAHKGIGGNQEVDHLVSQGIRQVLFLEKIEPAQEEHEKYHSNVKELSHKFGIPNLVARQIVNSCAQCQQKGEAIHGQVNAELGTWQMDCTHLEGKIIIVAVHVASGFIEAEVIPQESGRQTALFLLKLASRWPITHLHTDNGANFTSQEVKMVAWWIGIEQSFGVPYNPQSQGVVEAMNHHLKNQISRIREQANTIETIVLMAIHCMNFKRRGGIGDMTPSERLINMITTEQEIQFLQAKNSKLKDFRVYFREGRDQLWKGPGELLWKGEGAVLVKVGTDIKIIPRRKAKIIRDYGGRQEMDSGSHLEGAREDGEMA

Structure (SMILES) | IC50
Cc1ccc(S(=O)(=O)N=C2C=C(Cl)C(=O)C(Br)=C2)cc1 | 1.8 µM
CN1CC(O)C2=CC(=O)C(=O)C=C21 (centres undefined) | 4 µM
O=C1C=CC(=O)C(c2cccc(Cl)c2)=C1 | 1.1 µM
O=C1C=CC(=O)c2c(O)cccc21 | 3.1 µM
C=CCN1C(=O)/C(=C\c2ccc([N+](=O)[O-])o2)C(=O)NC1=S | inactive
Cc1ccc(-c2c(C#N)c(SCC(=O)c3ccc(O)c(O)c3)nc3c2CCCC3)o1 | 1.5 µM
Cc1cccc(NC(=O)c2c(NC(=O)c3ccc([N+](=O)[O-])cc3)sc3c2CCCC3)c1 | 2.7 µM
NC(=O)c1c(NC(=O)CCc2ccccc2)sc2c1CCCCCC2 | 1.7 µM
Cc1sc(NC(=O)c2cccc([N+](=O)[O-])c2)c(C(N)=O)c1C | 1.8 µM
N#C/C(=C\Nc1ccc(S(=O)(=O)Nc2nccs2)cc1)c1nc(-c2ccc(Cl)cc2)cs1 | 4.1 µM
Cc1ccc(C)n1-c1ccc(O)c(C(=O)O)c1 | 1.6 µM
CC(C)=CCc1ccc(O)c(=O)cc1C(C)C | > 100 µM (inactive)
FC(F)(F)c1nc2ccc(SSc3ccc4nc(C(F)(F)F)[nH]c4c3)cc2[nH]1 | 0.6 µM
O=C1NC(=O)/C(=C/c2ccc(-c3ccc(O)c(C(=O)O)c3)o2)S1 | 1 µM
O=C1C=CC(=NS(=O)(=O)c2ccc(Cl)c([N+](=O)[O-])c2)C=C1 | 4.1 µM
NC(=O)c1c(NC(=O)COc2ccccc2)sc2c1CCCCC2 | 8 µM
CC(C)OC(=O)c1cc(O)c(O)c(O)c1 | 8 µM
O=C(NC(=S)Nc1cc(-c2nc3ccccc3s2)ccc1Cl)c1ccc(F)cc1 | 9.1 µM
O=[N+]([O-])c1cc(Cc2cc([N+](=O)[O-])c3cccnc3c2O)c(O)c2ncccc12 | 2.8 µM
Cc1sc(NC(=O)C2CC3CCC2C3)c(C(N)=O)c1C (centres undefined) | inactive
O=C(N/N=C/c1ccc(/C=N/NC(=O)c2ccc(O)c(O)c2)cc1)c1ccc(O)c(O)c1 | 3.8 µM
CN(C)CN1CSC(=S)N(CN(C)C)C1 | 2.8 µM
COc1cc(C)cc2c(-c3c(O)cc(O)c4c3C[C@@H](C)N[C@@H]4C)cc(-c3cc(-c4c(O)cc(O)c5c4C[C@@H](C)N[C@@H]5C)c4cc(C)cc(OC)c4c3O)c(O)c12 | 2.1 µM
CC(C)=CCC(O)C1=CC(=O)c2c(O)ccc(O)c2C1=O (centres undefined) | inactive
Cc1ccccc1-n1c(O)c(C=C2C=CC=N2)c(=O)[nH]c1=S | inactive
CCOc1ccc(C2=CC(=O)C=CC2=O)cc1 | 0.7 µM

Structure (SMILES) | IC50
COc1ccc2c(c1)N(C(=O)CN1C(=O)c3ccccc3C1=O)C(C)(C)c1ssc(=S)c1-2 | 3.7 µM
O=C1/C(=C/c2ccco2)C(=O)N(c2ccc(Br)cc2)C(=S)N1c1ccccc1 | inactive
O=C1/C(=C/c2ccc(O)c(O)c2)SC(=S)N1C1CCCCC1 | 9.1 µM
CN(C)CS/C(N)=N/C(O)C(Cl)(Cl)Cl (centres undefined) | 6 µM
CCOc1ccc(N2C(=O)/C(=C/c3ccc(Br)o3)C(=O)NC2=S)cc1 | 0.9 µM
C[N+](C)=c1ccc2nc3c(cc(Nc4ccccc4)c4ccccc43)oc-2c1 | inactive
CC1C2C=CC1C(c1c3ccc(=O)c(O)c-3oc3c(O)c(O)ccc13)C2C(=O)O (centres undefined) | 0.5 µM
Oc1cc(O)c2cc(O)c(-c3ccc(O)c(O)c3)[o+]c2c1 | 0.8 µM
CC(C)c1cccc(O)c(=O)c1 | > 100 µM (inactive)
Nc1ccc(S(=O)(=O)O)c2cccc(O)c12 | inactive
CC(C)=Cc1cc(CCC/C(C)=C/Cc2c(O)cc(C)c(C(=O)O)c2O)co1 | 5.7 µM
O=C1/C(=C\c2ccc(O)c(O)c2)SC(=S)N1c1cccc(Cl)c1 | 6.6 µM
Nc1nc(Sc2ccc([N+](=O)[O-])c3nonc23)c2[nH]cnc2n1 | inactive
N#Cc1c(NC(=O)C(F)(F)F)sc2c3c(=O)c4ccccc4c(=O)c=3oc3ccccc3c12 | inactive
O=C1C(Cl)=C/C(=N\S(=O)(=O)c2ccc(Cl)cc2)C(Cl)=C1Cl | 1 µM
O=c1c(O)c(-c2cc(O)c(O)c(O)c2)oc2cc(O)cc(O)c12 | 3 µM
Oc1cc(CN2COc3ccccc32)c(O)cc1CNC1CCCCC1 | 2.9 µM
Cc1sc(NC(=O)Cc2ccccc2)c(C(N)=O)c1C | 9 µM
Cc1ccc(-c2cc(C(=O)Nc3sc(C(=O)OC(C)C)c(C)c3C(N)=O)c3ccccc3n2)s1 | 1.1 µM
Oc1ccc2ccccc2c1C=NCc1c(O)ccc2ccccc12 | inactive
Cc1ccc(NC(=O)c2c(NC(=O)C(F)(F)F)sc(-c3ccccc3)c2C)c(C)c1 | 2 µM
CCOc1ccc(NC(=O)c2c(NC(=O)c3ccccc3)sc3c2CCCCC3)cc1 | inactive
CC1=C(C)CC(C(=O)Nc2ccc(N3C(=O)c4ccccc4C3=O)cc2)C(C(=O)O)C1 (centres undefined) | > 100 µM (inactive)
O=C1c2cc([N+](=O)[O-])ccc2-c2ccc3c4ccc5c6c(ccc(c7ccc1c2c73)c64)C(=O)c1cc([N+](=O)[O-])ccc1-5 | 4 µM
O=C(Oc1ccccc1)Oc1c(Cl)cc2oc(=O)sc2c1Cl | 6.3 µM
Cc1sc(NC(=O)C2CCCO2)c(C(N)=O)c1C (centres undefined) | 4.3 µM

Structure (SMILES) | IC50
Cc1ccc(C)n1-c1ccc(Br)cc1C(=O)O | inactive
COc1ccc(C(=O)NC(=S)Nc2ccc3nn(-c4ccc(C)c(Cl)c4)nc3c2)cc1[N+](=O)[O-] | 4.3 µM
Cc1ccc(S(=O)(=O)/N=C2\C=C(Sc3ncn[nH]3)C(=O)c3ccccc32)cc1 | 2 µM
O=[N+]([O-])c1ccc(S(=O)(=O)Cc2ccccc2)c2nonc12 | 5 µM
COc1ccc(-c2c(C#N)c(N)nc(SCC(=O)c3ccc(O)c(O)c3)c2C#N)cc1 | 0.7 µM
Cc1cc(-c2ccc(C=C3C(=O)NC(=S)NC3=O)o2)c([N+](=O)[O-])cc1C | 7 µM
CC(C)c1ccc(O)c(=O)cc1 | inactive
C[C@]12Cc3cnc(-c4ccccc4)nc3C[C@@H]1CC[C@@H]1[C@@H]2CC[C@@]2(C)[C@H]1CC[C@]2(C)O | inactive
Cc1ccc(-n2c(/C=C/c3ccc(O)c(O)c3)nc3ccccc3c2=O)cc1 | 3.8 µM
O=c1c(O)c(-c2ccc(O)c(O)c2)oc2cc(O)cc(O)c12 | 9 µM
C=C(C)[C@@H]1CCc2c(O)c(O)c(=O)cc(C)c2C1 | 1.7 µM
O=C(O)CCc1c2ccc(=O)c(O)c-2oc2c(O)c(O)ccc12 | 0.6 µM
COc1ccc2oc(=O)c(-c3csc(Nc4ccc(Br)cc4)n3)cc2c1 | 9.8 µM
COc1ccc(NC(=O)c2c(N)sc(-c3ccccc3)c2C)cc1 | 9 µM
O=C1NC(=S)S/C1=C/c1cccc(OCc2ccc(Cl)c(Cl)c2)c1 | 7.3 µM
O=C1NC(=S)N(c2ccccc2F)C(=O)/C1=C/c1ccc(OCc2cccc(C(=O)O)c2)cc1 | 9 µM
CC1=C(CCC(=O)O)c2cc3nc(cc4[nH]c(cc5[nH]c(cc1n2)c(C)c5C(C)O)c(C)c4C(C)O)C(C)=C3CCC(=O)O (centres undefined) | 1.7 µM
COc1c(OC)c(O)c2c(=O)cc(-c3ccc(O)c(O)c3)oc2c1OC | 3 µM
O=C(O)C1CCCCC1c1c2ccc(=O)c(O)c-2oc2c(O)c(O)ccc12 (centres undefined) | 0.6 µM
COc1ccc(C2COc3cc(O)c(O)cc3C2)cc1 (centres undefined) | 0.5 µM
Cc1cc(Cl)ccc1OCC(=O)Nc1sc(C)c(C)c1C(N)=O | inactive
O=C1NC(=S)N(c2ccccc2F)C(=O)C1=Cc1ccco1 | 2.6 µM
O=C1C(Cl)=C(NC(=O)c2ccccc2)C(=O)C(Cl)=C1NC(=O)c1ccccc1 | 1.1 µM
O=C1C(Cl)=C/C(=N\S(=O)(=O)c2ccccc2)C(Cl)=C1Cl | 0.9 µM
O=C1c2ccc(O)cc2C(=O)c2c1ccc(O)c2O | 2 µM
CCCc1cc(=O)oc2c3c(c4c(c12)OC(C)(C)C=C4)O[C@H](C)[C@@H](C)[C@H]3OC | inactive

Structure (SMILES) | IC50
O=C1C=CC(=O)C(c2cc(Cl)ccc2Cl)=C1 | 0.1 µM
Cc1sc(NC(=O)c2ccc3c(c2)OCO3)c(C(N)=O)c1C | 10 µM
Cc1cc(Br)ccc1N1C(=O)/C(=C/c2ccco2)C(=O)NC1=S | 4 µM
CC(=O)/C=C/C=C/c1ccc2c(c1)OC(CO)C(c1ccc(O)c(O)c1)O2 (centres undefined) | inactive
Cc1cc(I)c2c(c1)C1C=CCC1C(C(=O)O)N2 (centres undefined) | > 100 µM (inactive)
O=C1NC(=S)N(c2ccccc2F)C(=O)/C1=C/c1ccc(I)o1 | 4.9 µM
COc1cccc2cc(C(N)=O)c(=O)oc12 | 4.6 µM
O=C(O)c1c(Br)c(Br)c(Br)c(Br)c1C1c2ccc(O)cc2Oc2cc(O)ccc21 | 8 µM
Nc1ccc(N=Nc2ccc(-c3ccc(O)cc3)cc2)c2ccc(S(=O)(=O)O)cc12 | 6.3 µM
CCOc1ccc(C(=O)Nc2ccc3c(c2)C(=O)c2ccccc2C3=O)cc1 | 4.3 µM
COC(=O)c1c(N)sc(C(=O)Nc2ccc(OC)cc2)c1C | 4.3 µM
C[C@@H]1Oc2c3c(c4c(-c5ccccc5)cc(=O)oc4c2C(=O)[C@H]1C)OC(C)(C)C=C3 | 9.8 µM
C=CC(C)(C)C12CC3C(=O)N/C(=C\c4cnc[nH]4)C(=O)N3C1Nc1ccccc12 (centres undefined) | > 100 µM (inactive)
O=C1C=CC2=C3c4cc(O)c(O)cc4CC3(O)COC2=C1O (centres undefined) | 1.7 µM
O=c1oc2ccccc2c(O)c1/C=C1\C=Nc2ccccc21 | 5 µM
O=C1c2ccccc2C(=O)N1c1ccc(-c2nc3ccc(N4C(=O)c5ccccc5C4=O)cc3[nH]2)cc1 | 1.7 µM
Cc1cc(-c2ccco2)c(C#N)c(SCC(=O)c2ccc(O)c(O)c2)n1 | 0.8 µM
Nc1cc(S(N)(=O)=O)ccc1SSc1ccc(S(N)(=O)=O)cc1N | 2.5 µM
CCOc1ccc(NC(=O)c2c(NC(=O)c3ccco3)sc3c2CCCCC3)cc1 | 6 µM
Oc1c(Br)cc(/C=N/Nc2nnc3c(n2)[nH]c2ccccc23)c(Br)c1O | 2.3 µM
Cc1cc(C)c2c(=O)[nH]c(SCC(=O)c3ccc(O)c(O)c3)nc2n1 | 3 µM
S=C(Nc1ccc2c(c1)Cc1ccccc1-2)Nc1ccc2c(c1)Cc1ccccc1-2 | inactive
CCOC(=O)Oc1c(OC)cc(C(=O)O[C@@H]2C[C@@H]3CN4CCc5c([nH]c6cc(OC)ccc56)[C@H]4C[C@@H]3[C@H](C(=O)OC)[C@H]2OC)cc1OC | > 100 µM (inactive)
NC(=O)c1c(N)sc2c1CCCCC2 | 2.5 µM
Cc1nn(CC(=O)Nc2sc(C)c(C)c2C(N)=O)c(C)c1[N+](=O)[O-] | 4.3 µM
Cc1c(Cl)ccc2c1NC(C(=O)O)C1CC=CC21 (centres undefined) | inactive
